Data reported in ChEMBL document CHEMBL3352411, “Structure-activity relationships (SAR) and structure-kinetic relationships (SKR) of bicyclic heteroaromatic acetic acids as potent CRTh2 antagonists II: lead optimization” (Bioorg Med Chem Lett, 2014).
One block for each molecule: values may come before it.

Tests used:
[1] = target: T1, Prostaglandin D2 receptor 2 (Homo sapiens) (UniProt Q9Y5Y4); assay: Binding affinity to CRTh2 receptor (unknown origin) overexpressed in CHOK1 cell membranes assessed as dissociation half life at 10 times IC50 concentration preincubated for 1 hr with 0.1 nM to 100 uM PGD2 and [35S]-GTPgammaS by liquid scintillation counting analysis; assay type: functional; conditions: CHO-K1
T1 sequence (whole entry): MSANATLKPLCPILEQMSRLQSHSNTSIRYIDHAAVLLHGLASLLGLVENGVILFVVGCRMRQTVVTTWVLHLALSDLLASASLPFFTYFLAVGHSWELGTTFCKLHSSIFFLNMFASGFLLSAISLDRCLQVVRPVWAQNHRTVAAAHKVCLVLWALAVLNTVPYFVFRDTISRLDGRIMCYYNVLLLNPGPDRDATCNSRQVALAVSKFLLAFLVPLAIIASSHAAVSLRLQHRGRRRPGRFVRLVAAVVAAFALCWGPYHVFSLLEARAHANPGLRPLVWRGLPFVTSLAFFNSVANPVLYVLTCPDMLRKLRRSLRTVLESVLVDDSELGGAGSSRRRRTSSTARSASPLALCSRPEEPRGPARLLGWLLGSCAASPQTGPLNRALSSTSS

[2] = target: T2, Prostaglandin D2 receptor 2 (Homo sapiens, UniProt Q9Y5Y4); assay: Antagonist activity at CRTh2 receptor (unknown origin) overexpressed in CHOK1 cell membranes assessed as inhibition of [35S]-GTPgammaS binding measured after 2 hrs by liquid scintillation counting analysis; assay type: functional, CHO-K1
T2 sequence (Q9Y5Y4 whole entry): T1 sequence (whole entry)

[3] = Cmax in Wistar rat at 1 mg/kg, iv; assay type: ADME, organism-based; parameters: dose 1 mg/kg, route intravenous; conditions: in vivo
[4] = Clearance in Wistar rat at 1 mg/kg, iv; assay type: ADME, organism-based; parameters: dose 1 mg/kg, route intravenous; conditions: in vivo
[5] = AUC (0 to infinity) in Wistar rat at 1 mg/kg, iv; assay type: ADME, organism-based; parameters: time infinity, dose 1 mg/kg, route intravenous; conditions: plasma
[6] = Mean residence time in Wistar rat at 1 mg/kg, iv; assay type: ADME, organism-based; parameters: dose 1 mg/kg, route intravenous; conditions: in vivo
[7] = Terminal half life in Wistar rat at 1 mg/kg, iv; assay type: ADME, organism-based; parameters: dose 1 mg/kg, route intravenous; conditions: in vivo, read-out: beta t1/2 (converted)
[8] = Volume of distribution at steady state in Wistar rat at 1 mg/kg, iv; assay type: ADME, organism-based; parameters: dose 1 mg/kg, route intravenous; conditions: in vivo, read-out: Vdss
[9] = Oral bioavailability in Wistar rat at 10 mg/kg; assay type: ADME, organism-based; conditions: in vivo

Structure (SMILES): CCN(Cc1cc(C(F)(F)F)ccc1-c1nn(CC(=O)O)c2cccc(C)c12)C(=O)C1CC1
T1/2 [1]: 2.3 h

Structure (SMILES): CCN(Cc1cc(C(F)(F)F)ccc1-c1nn(CC(=O)O)c2cc(F)ccc12)C(=O)C1CC1
IC50 [2]: 127 nM

Structure (SMILES): CCN(Cc1cc(C(F)(F)F)ccc1-c1nn(CC(=O)O)c2cccc(C#N)c12)C(=O)C1CC1
T1/2 [1]: 1.2 h
IC50 [2]: 33 nM

Structure (SMILES): CCN(Cc1cc(C(F)(F)F)ccc1-c1cc(CC(=O)O)n2cccnc12)C(=O)C1CC1
Cmax [3]: 910 ng/mL
clearance [4]: 26 mL/min/kg
AUC(0-inf) [5]: 639 ng·h/mL
MRT [6]: 2.6 h
half-life [7]: 4.6 h
T1/2 [1]: 2 h
Vd [8]: 4.2 L/kg

Structure (SMILES): CCN(Cc1cc(C(F)(F)F)ccc1-c1nn(CC(=O)O)c2cccc(Cl)c12)C(=O)C1CC1
T1/2 [1]: 3.2 h
IC50 [2]: 6.3 nM

Structure (SMILES): CCN(Cc1cc(C(F)(F)F)ccc1-c1nn(CC(=O)O)c2ccc(F)c(Cl)c12)C(=O)C1CC1
T1/2 [1]: 3.3 h

Structure (SMILES): CCN(Cc1cc(C(F)(F)F)ccc1-c1nn(CC(=O)O)c2cccc(OC)c12)C(=O)C1CC1
T1/2 [1]: 2.4 h
IC50 [2]: 23 nM

Structure (SMILES): CCN(Cc1cc(C(F)(F)F)ccc1-c1nn(CC(=O)O)c2ccccc12)C(=O)C1CC1
IC50 [2]: 19 nM

Structure (SMILES): CCN(Cc1cc(C(F)(F)F)ccc1-c1nn(CC(=O)O)c2ccc(Cl)cc12)C(=O)C1CC1
T1/2 [1]: 2.8 h

Structure (SMILES): CCN(Cc1cc(C(F)(F)F)ccc1-c1cc(CC(=O)O)c2ccc(C)nn12)C(=O)C1CC1
T1/2 [1]: 26 h
IC50 [2]: 4.2 nM

Structure (SMILES): CCN(Cc1cc(C(F)(F)F)ccc1-n1cc(CC(=O)O)c2ccccc21)C(=O)C1CC1
T1/2 [1]: 2.5 h

Structure (SMILES): CCN(Cc1cc(C(F)(F)F)ccc1-c1nn(CC(=O)O)c2cccc(F)c12)C(=O)C1CC1
T1/2 [1]: 5 h
IC50 [2]: 4.3 nM

Structure (SMILES): CCN(Cc1cc(C(F)(F)F)ccc1-c1nn(CC(=O)O)c2ccc(Cl)c(F)c12)C(=O)C1CC1
T1/2 [1]: 10.5 h
IC50 [2]: 15 nM

Structure (SMILES): CCN(Cc1cc(C(F)(F)F)ccc1-c1nn(CC(=O)O)c2ccc(C)cc12)C(=O)C1CC1
T1/2 [1]: 1.8 h
IC50 [2]: 9 nM

Structure (SMILES): CCN(Cc1cc(C(F)(F)F)ccc1-c1cn(CC(=O)O)c2cccnc12)C(=O)C1CC1
T1/2 [1]: 1.9 h
IC50 [2]: 20 nM

Structure (SMILES): CCN(Cc1cc(C(F)(F)F)ccc1-c1nn(CC(=O)O)c2ccc(F)cc12)C(=O)C1CC1
T1/2 [1]: 1.4 h

Structure (SMILES): CCN(Cc1cc(C(F)(F)F)ccc1-c1cn(CC(=O)O)c2ccc(C)nc12)C(=O)C1CC1
Cmax [3]: 366 ng/mL
clearance [4]: 134 mL/min/kg
AUC(0-inf) [5]: 126 ng·h/mL
MRT [6]: 0.3 h
half-life [7]: 0.5 h
T1/2 [1]: 21 h
Vd [8]: 2.7 L/kg
IC50 [2]: 17 nM

Structure (SMILES): CCN(Cc1cc(C(F)(F)F)ccc1-c1cn(CC(=O)O)c2ccc(C(F)(F)F)nc12)C(=O)C1CC1
T1/2 [1]: 25 h
IC50 [2]: 15 nM

Structure (SMILES): CCN(Cc1cc(F)ccc1-c1cn(CC(=O)O)c2ccc(C(F)(F)F)cc12)C(=O)C1CC1
T1/2 [1]: 20 h
IC50 [2]: 14 nM

Structure (SMILES): CCN(Cc1cc(F)ccc1-c1cn(CC(=O)O)c2ccccc12)C(=O)C1CC1
Cmax [3]: 431 ng/mL
clearance [4]: 76 mL/min/kg
AUC(0-inf) [5]: 222 ng·h/mL
MRT [6]: 1.2 h
half-life [7]: 1.9 h
T1/2 [1]: 2 h
Vd [8]: 5.4 L/kg

Structure (SMILES): CCN(Cc1ccccc1-n1cc(CC(=O)O)c2ccc(C(F)(F)F)cc21)C(=O)C1CC1
Cmax [3]: 1900 ng/mL
clearance [4]: 16 mL/min/kg
AUC(0-inf) [5]: 1070 ng·h/mL
MRT [6]: 3.4 h
half-life [7]: 6.6 h
T1/2 [1]: 27 h
Vd [8]: 3.2 L/kg
IC50 [2]: 11 nM

Structure (SMILES): CCN(Cc1ccccc1-n1cc(CC(=O)O)c2ccc(C)nc21)C(=O)C1CC1
T1/2 [1]: 8.8 h

Structure (SMILES): CCN(Cc1cc(C(F)(F)F)ccc1-c1cc(CC(=O)O)n2ccc(C)nc12)C(=O)C1CC1
T1/2 [1]: 19 h

Structure (SMILES): CCN(Cc1cc(F)ccc1-n1cc(CC(=O)O)c2cccnc21)C(=O)C1CC1
T1/2 [1]: 1.3 h

Next, values leading:

T1/2 [1]: 26 h
IC50 [2]: 5 nM
Structure (SMILES): CCN(Cc1cc(C(F)(F)F)ccc1-n1cc(CC(=O)O)c2ccc(C)nc21)C(=O)NCc1ccccc1

T1/2 [1]: 24 h
IC50 [2]: 5.9 nM
Structure (SMILES): CCN(Cc1cc(C)ccc1-n1cc(CC(=O)O)c2ccc(C)nc21)C(=O)C1CC1

T1/2 [1]: 7 h
IC50 [2]: 4 nM
Structure (SMILES): COCCN(Cc1cc(C(F)(F)F)ccc1-n1cc(CC(=O)O)c2ccc(C)nc21)C(=O)C1CC1

T1/2 [1]: 16 h
IC50 [2]: 5.8 nM
Structure (SMILES): CCN(Cc1cc(OC(F)(F)F)ccc1-n1cc(CC(=O)O)c2ccc(C)nc21)C(=O)C1CC1

T1/2 [1]: 9.2 h
IC50 [2]: 28 nM
Structure (SMILES): Cc1ccc2c(CC(=O)O)cn(-c3ccc(C(F)(F)F)cc3CN(C(=O)C3CC3)C(C)C)c2n1

T1/2 [1]: 5.4 h
IC50 [2]: 49 nM
Structure (SMILES): CCN(Cc1cc(C(F)(F)F)ccc1-n1cc(CC(=O)O)c2ccc(C3CC3)nc21)C(=O)C1CC1

T1/2 [1]: 2.3 h
Structure (SMILES): CCN(Cc1cc(C(F)(F)F)ccc1-n1cc(CC(=O)O)c2cccnc21)C(=O)C1CC1

T1/2 [1]: 31 h
IC50 [2]: 5.2 nM
Structure (SMILES): CCN(Cc1cc(Cl)ccc1-n1cc(CC(=O)O)c2ccc(C)nc21)C(=O)C1CC1

T1/2 [1]: 29 h
IC50 [2]: 11 nM
Structure (SMILES): CCN(Cc1cc(C(F)(F)F)ccc1-n1cc(CC(=O)O)c2ccc(C(F)F)nc21)C(=O)C1CC1

T1/2 [1]: 24 h
IC50 [2]: 6 nM
Structure (SMILES): CCN(Cc1cc(C(F)(F)F)ccc1-n1cc(CC(=O)O)c2ccc(C)nc21)C(=O)Cc1ccccc1

Cmax [3]: 1610 ng/mL
clearance [4]: 14 mL/min/kg
bioavailability [9]: 27%
AUC(0-inf) [5]: 1220 ng·h/mL
MRT [6]: 2.3 h
half-life [7]: 4.9 h
T1/2 [1]: 21 h
Vd [8]: 1.8 L/kg
IC50 [2]: 10 nM
Structure (SMILES): CCN(Cc1cc(C(F)(F)F)ccc1-n1cc(CC(=O)O)c2ccc(C)nc21)C(=O)C1CC1

T1/2 [1]: 6.4 h
Structure (SMILES): CCN(Cc1cc(C(F)(F)F)ccc1-n1cc(CC(=O)O)c2ccc(C)nc21)C(C)=O

T1/2 [1]: 21 h
IC50 [2]: 9 nM
Structure (SMILES): CCN(Cc1cc(C(F)(F)F)ccc1-n1cc(CC(=O)O)c2ccc(C)nc21)C(=O)COC

T1/2 [1]: 11 h
IC50 [2]: 4.7 nM
Structure (SMILES): CCN(Cc1cc(F)ccc1-n1cc(CC(=O)O)c2ccc(C)nc21)C(=O)C1CC1

IC50 [2]: 40 nM
Structure (SMILES): CCN(Cc1cc(S(C)(=O)=O)ccc1-n1cc(CC(=O)O)c2ccc(C)nc21)C(=O)C1CC1

T1/2 [1]: 22 h
IC50 [2]: 7 nM
Structure (SMILES): CCN(Cc1cc(C(F)(F)F)ccc1-n1cc(CC(=O)O)c2ccc(C)nc21)C(=O)CC1CC1

IC50 [2]: 135 nM
Structure (SMILES): CCN(Cc1cc(C(F)(F)F)ccc1-n1cc(CC(=O)O)c2ccc(OC)nc21)C(=O)C1CC1

T1/2 [1]: 9.9 h
IC50 [2]: 10 nM
Structure (SMILES): CCc1ccc2c(CC(=O)O)cn(-c3ccc(C(F)(F)F)cc3CN(CC)C(=O)C3CC3)c2n1

T1/2 [1]: 24 h
IC50 [2]: 10 nM
Structure (SMILES): CCN(Cc1cc(C(F)(F)F)ccc1-n1cc(CC(=O)O)c2ccc(C)nc21)C(=O)C1CCC1

IC50 [2]: 119 nM
Structure (SMILES): CCN(Cc1cc(C(F)(F)F)ccc1-n1cc(CC(=O)O)c2ccc(C)cc21)C(=O)C1CC1

T1/2 [1]: 32 h
IC50 [2]: 11 nM
Structure (SMILES): Cc1ccc2c(CC(=O)O)cn(-c3ccc(C(F)(F)F)cc3CN(CC3CC3)C(=O)C3CC3)c2n1

T1/2 [1]: 7.8 h
IC50 [2]: 14 nM
Structure (SMILES): Cc1ccc2c(CC(=O)O)cn(-c3ccc(C(F)(F)F)cc3CN(CCO)C(=O)C3CC3)c2n1

IC50 [2]: 97 nM
Structure (SMILES): CCN(Cc1cc(C(F)(F)F)ccc1-n1cc(CC(=O)O)c2ccc(C)nc21)C(=O)c1ccccn1

IC50 [2]: 163 nM
Structure (SMILES): CCN(Cc1cc(C(F)(F)F)ccc1-n1cc(CC(=O)O)c2ccc(C)nc21)C(=O)CN(C)C

IC50 [2]: 54 nM
Structure (SMILES): CCN(Cc1cc(C(F)(F)F)ccc1-n1cc(CC(=O)O)c2ccc(C(F)(F)F)nc21)C(=O)C1CC1

T1/2 [1]: 40 h
IC50 [2]: 4 nM
Structure (SMILES): Cc1ccc2c(CC(=O)O)cn(-c3ccc(C(F)(F)F)cc3CN(CCOc3ccccc3)C(=O)C3CC3)c2n1
